# Reference: PMC12648310, “Modular Assembled Targeting Chimera Enables Multimodal Targeted Protein Degradation” (JACS Au, 2025)
# Where two headings read alike, the source gives them in different places.
# Legend:
# BRD4 = molecular target: T1, BRD4 (Homo sapiens, UniProt O60885); experiment: Immunoblot of BRD4 degradation in MDA-MB-231 cells; assay type: cell-based; conditions: component without its click partner
# T1 construct: Western blot analysis of BET protein levels was performed across these 11 module assembly combinations; endogenous in cells; host or cells: MDA-MB-231
# Method: deprotection under General Procedure I, followed by condensation with compound 4 under General Procedure II, yielded AN2-C3-Tz as a purple oil in 60% yield (over two steps from 25).
# The full NMR and MS spectra of the synthesized degrader compounds were shown in Appendix A and B, respectively. The degrader compounds were dissolved in DMSO as 10 mM stock solution and stored at -20℃, freeze-thaw cycle was avoided. Inhibitors for bioassays were purchased from […]
# Cell culture and drug treatment
# The breast cancer cells and leukemia cells used were purchased from Wuhan Purdue Life Technology Co., Ltd. All cell lines were tested for mycoplasma to ensure no contamination. […]
# The fluorescence spectrum of POM-dTz was measured using a Hitachi F4500. […]
# P0013G) premixed with a protease inhibitor cocktail. […] The supernatant was quantified and adjusted using a bicinchoninic acid (BCA) method and then boiled in an SDS loading buffer. […] After another 3 washes with TBST, the membrane was incubated with an enzymatic chemiluminescence (ECL) reagent, and the signal was detected instantly by a chemiluminescence imager (JP-K600, Jiapeng, Shanghai, China).
# The signal values were quantified by ImageJ software. The expression level of a target protein was determined by the ratio of its signal value to GAPDH’s. […]
# [1] = Pharmacokinetics in SD rats; assay type: in vivo, Sprague–Dawley (SD) rats; conditions: for half-life / AUC(0-inf) / AUC(0-t) / Cmax / Tmax / bioavailability / C0 / Vd / clearance / MRT inf: male, Sprague-Dawley, rat, plasma; for clearance: read-out: CL_obs; for MRT inf: read-out: MRTinf_obs
# Method: Given the favorable cellular performance of the POM-dmTz and JQ1-TCO stoichiometric ratio, we further investigated their in vivo pharmacokinetic (PK) profiles (Figure ). […] Blood samples were collected from the jugular vein at 5 min, 15 min, 30 min, 1, 2, 4, 7, and 24 h postdosing for drug concentration analysis.
# This pharmacokinetic study protocol used SPF grade male SD rats (6-8 weeks old, weight 200-300g, supplied by a biotechnology company in Beijing) to evaluate the metabolic characteristics of compound GP262 through intravenous injection (IV) and intraperitoneal injection (IP). The IV group received a dose of 5 mg/kg (2.5 mg/mL concentration, 2 mL/kg administration), while the IP group […]
# consisted of 3 fasted animals. The IV group solvent was a mixed system containing 10% DMSO, 60% PEG400, and 30% water. Collect whole blood samples at 5 minutes, 15 minutes, 0.5 hours, 1, 2, 4, 7, and 24 hours after administration. Immediately after collection with EDTA-K2 anticoagulant tube, centrifuge at 4 ℃ and 4000 × g for 5 minutes. Separate the plasma and transfer it to an anticoagulant free EP tube. Store it at -75 ± 15 ℃ for testing at ultra-low temperature. Throughout the experiment, a dual drug group parallel control was set up, and standardized operating procedures were used to ensure the timeliness and storage stability of plasma separation, providing standardized biological samples for subsequent LC-MS/MS analysis. […]
Compound,BRD4 degradation by single component alone (BRD4),half-life ([1]; IP 10 mg/kg) [min],"AUC(0-inf) ([1]; IV 5 mg/kg, mean) [ng·h/mL]","AUC(0-t) ([1]; IV 5 mg/kg, mean) [ng·h/mL]","C0 ([1]; IV 5 mg/kg, mean) [ng/mL]","Vd ([1]; IV 5 mg/kg, mean) [L/kg]","half-life ([1]; IV 5 mg/kg, mean) [min]","clearance ([1]; IV 5 mg/kg, mean) [mL/min/kg]","MRT inf ([1]; IV 5 mg/kg, mean) [min]",further results
Cc1nnc(CNC(=O)CCOCC(COCCC(=O)NCc2nnc(C)nn2)NC(=O)COc2cccc3c2C(=O)N(C2CCC(=O)NC2=O)C3=O)nn1 (stereo not shown) [POM-dmTz],neither component alone triggered detectable degradation,22.6,500,496,1850,9.39,40.2,171,21.3,"T1/2 ([1]; IP 10 mg/kg): shorter half-life; AUC(0-inf) ([1]; IP 10 mg/kg, mean): 406 ng·h/mL; AUC(0-t) ([1]; IP 10 mg/kg, mean): 405 ng·h/mL; Cmax ([1]; IP 10 mg/kg, mean): 398 ng/mL; Tmax ([1]; IP 10 mg/kg, mean): 25 min; bioavailability ([1]; IP 10 mg/kg, mean): 40.5%"
Cc1sc2c(c1C)C(c1ccc(Cl)cc1)=NC(CC(=O)NCCNC(=O)OC1CCC=CCCC1)c1nnc(C)n1-2 (stereo not shown) [JQ1-TCO],neither component alone triggered detectable degradation,~124,1240,1240,2030,10.3,118,69,44,"AUC(0-inf) ([1]; IP 20 mg/kg, mean): 7670 ng·h/mL; AUC(0-t) ([1]; IP 20 mg/kg, mean): 7660 ng·h/mL; Cmax ([1]; IP 20 mg/kg, mean): 1860 ng/mL; Tmax ([1]; IP 20 mg/kg, mean): 25 min; bioavailability ([1]; IP 20 mg/kg, mean): 64%; half-life ([1]; IP 20 mg/kg, mean): 124 min; MRT inf ([1]; IP 20 mg/kg, mean): 193 min"
